Results taken from patent publication US6407064B2, “Aminoalcohol derivative and medicament comprising the same” (Seikagaku Corporation, priority 1999, dated 2002).

Legend:
[1] = tested on: cultured neurocytes of rat fetal cerebral cortex; test: Activity of accelerating synapse formation (intracellular calcium ion level, fura-2); type: cell-based; details: relative value, L-PDMP regarded as 100; compound 20 μM; assay on 10th day of culture
Description: The activity of accelerating synapse formation was determined by measuring change of an intracellular calcium ion level resulted from the synchronized spontaneous ignition of neurocytes which is considered to show synapse activities by means of an intracellular calcium ion multipoint observation system using a calcium ion fluorescence indicator, fura-2.
Concretely, rat fetuses at the 18th day of pregnancy were taken out from Wistar rats (available from Japan SLC), and cerebral cortices of the fetuses were taken out and cut into small pieces. After having been treated with papain (manufactured by Worthington Biochemical) at 37° C. for 30 minutes, the pieces were suspended into a Dulbecco modified Eagle's medium containing 5% bovine neonatal serum and 5% equine serum and the cortices were dissociated into single cells with Cell Striner (70 μm, Falcon). Then, the cells were inoculated into a flexiperm plate coated with 0.5% polyethyleneimine (1.0×10^6 cells/500 μl/well), and was cultured in 7% CO2 incubator at 37° C. The medium was exchanged on 2nd, 5th, and 8th days after the culture had been started. The activity of the compound of the present invention was measured using the primary culture. The compound was added at the time when the medium was exchanged and the concentration of the compound was maintained to be 20 μM. Assay was carried out on 10th day after the culture had been started.
(2) Measurement of Activity of Accelerating Synapse Formation
Concretely, after the medium of each well where cells were cultured was substituted with basic salt solution (BSS), 3 μl of a DMSO solution (1 mg/ml) of a calcium ion fluorescence indicator fura-2 was added, and the whole was kept at 37° C. for 1 hour.

[2] = Tissue distribution: concentration in plasma and skeletal muscle after oral or intravenous administration; type: in vivo; details: rat
Description: Tissue distribution of the compound in Example 19 was compared with that of L-PDMP using 6-8 week old Wistar male rats.
As oral administration, a physiological saline containing 20 mg/ml of a test substance was administered at 100 mg/5 ml/kg, and as intravenous administration, a physiological saline containing 1.25 mg/ml of a test substance was administered to the cervical vein at 5 mg/4 ml/kg.
After the predetermined time had passed since the above administration, blood was collected from the rat cervical vein, a 3.8% sodium citrate solution was added thereto at 1/10 volume, followed by centrifugation at 3,000 rpm for 15 minutes to obtain the supernatant as a plasma sample.
Also, after the predetermined time had passed since the above administration, the skeletal muscle was collected from the femoral region of both hind legs, ice water was added thereto at 4 ml/g tissue, followed by homogenization, and the same volume of acetonitrile was added thereto, followed by vigorously stirring and centrifugation at 4000 rpm for 10 minutes to obtain the supernatant as a skeletal muscle sample.
The plasma and skeletal muscle samples were extracted by OASIS HLB solid phase extraction column (manufactured by Waters), and the concentration of the test compound in the plasma and the muscle was determined by high performance liquid chromatography (HPLC). The conditions of HPLC analysis were as follows:
Detection wavelength: 218 nm
Column: DAISO PACK SP-120-5-ODS-BP
Column temperature: 40° C.
Mobile phase: 0.1% trifluoroacetic acid solution:methanol=36:64 (for L-PDMP); 0.1% trifluoroacetic acid solution:methanol=48:52 (for the compound in Example 19)
The concentrations in the plasma and skeletal muscle of the compound in Example 19 and L-PDMP after the predetermined time has been passed since the administration of the test compounds are shown in Tables 4-6 below. The values are the mean values of at least two test samples. Specifically, Table 4, Table 5, and Table 6 show the concentrations in the plasma after the oral administration of 100 mg/kg, the concentrations in the skeletal muscle after the oral administration of 100 mg/kg, and the concentrations in the plasma after the intravenous administration of 5 mg/kg, respectively.

[3] = tested on: enzyme for ganglioside GM3 synthesis, mouse B16 melanoma cell; test: Activity of enzyme for ganglioside GM3 synthesis (14C-Gal incorporated in total lipid fraction); type: cell-based; details: relative value, control regarded as 100; test compound 24 μM, 24 hours; 14C-Gal incorporation
Description: The gangliosides produced by mouse B16 melanoma cell are almost composed of ganglioside GM3. Therefore, the activity of the enzyme for ganglioside GM3 synthesis can be determined conveniently by measuring the amount of ^14C-Gal incorporated in a total lipid-extracted fraction through a liquid layer partition method.
A liquid where the cells of mouse B16 melanoma were suspended was prepared with Dulbecco modified Eagle's medium containing 10% bovine fetal serum, inoculated into a 12-well plate in an amount of 2.0×10^5 cells/ml/well, and cultured in 5% CO2 incubator at 37° C. The treatment with a test compound (24 μM) and the addition of ^14C-Gal (22.2 kBq/11.7 nmol/6 μl/well) were started through the exchange of total amount of the medium 24 hours after the culture was started. Twenty-four hours after the treatment with the test compound was started, the culture mixture was treated with PBS containing 0.02% EDTA and PBS containing 0.25% trypsin successively to recover the cells.
Then, a mixed solvent of chloroform:methanol=2:1 (3 ml) was added to the cell pellet and, after the subjection to an ultrasonication for 30 minutes, the supernatant was recovered. Furthermore, a mixed solvent of chloroform:methanol=1:1 (3 ml) was added to the residual pellet after the recovery of the supernatant, and a similar operation was carried out. The resulting supernatant was combined with the first supernatant and the whole was evaporated to dryness under a nitrogen stream. A desalinated water (1.0 ml) was added to the total lipid-extracted fraction. After having been subjected to an ultrasonication for 1 minute, the mixture was transferred into a dialysis tube and dialyzed against water for 2 days. The sample after the dialysis was transferred into a vial for liquid scintillation counter and, after the addition of scintillator, the activity of incorporating ^14C-Gal was measured on scintillation counter.
The values of activity of the compounds of the present invention are shown as relative values obtained by calculation on the basis that the value of a control (a group where no test compound was added) is regarded as 100 in Table 3 below.

## O=C(CCCCCCCCCO)N[C@@H](CN1CCOCC1)[C@@H](O)c1ccccc1 [Example 23, (1S,2S) -2-(10-hydroxydecanoyl) amino-3-morpholino-1-phenyl-1-propanol]
[1]
  Activity of synapse formation: 85.8

## CCCCOCCOCC(=O)N[C@@H](CN1CCOCC1)[C@@H](O)c1ccccc1 [Example 19, (1S,2S)-2-(3,6-dioxadecanoyl)amino-3-morpholino-1-phenyl-1-propanol]
[1]
  Activity of synapse formation: 90.8
[2]; male, Wistar, plasma, intravenous administration of 5 mg/kg, 10 min
  concentration at 10 min: 2240 ng/mL
[2]; male, Wistar, plasma, intravenous administration of 5 mg/kg, 25 min
  concentration at 25 min: 560 ng/mL
[2]; male, Wistar, plasma, oral administration of 100 mg/kg, 5 min
  concentration at 5 min: 2620 ng/mL
[2]; male, Wistar, plasma, oral administration of 100 mg/kg, 15 min
  concentration at 15 min: 8660 ng/mL
[2]; male, Wistar, plasma, oral administration of 100 mg/kg, 30 min
  concentration at 30 min: 6140 ng/mL
[2]; male, Wistar, plasma, oral administration of 100 mg/kg, 60 min
  concentration at 60 min: 950 ng/mL
[2]; in words
  retention in plasma and skeletal muscle compared with L-PDMP: kept in the plasma and skeletal muscle for a longer time
  tissue distribution compared with L-PDMP: higher tissue distribution than L-PDMP

## CCCCN(C)C(=O)CCC(=O)N[C@@H](CN1CCOCC1)[C@@H](O)c1ccccc1 [Example 10, (1S,2S)-2-(N-butyl-N-methylamino)butanedioylamino-3-morpholino-1-phenyl-1-propanol]
[1]
  Activity of synapse formation: 91.7

## CCCCCC(=O)NCC(=O)N[C@@H](CN1CCOCC1)[C@@H](O)c1ccccc1 [Example 4, (1S,2S)-2-(n-hexanoyl)glycylamino-3-morpholino-1-phenyl-1-propanol]
[3]
  Activity of accelerating glycolipid biosynthesis (Test Example 2): 71.3

## CC(=O)NC1C(O)CC(CCCCCCCCC(=O)N[C@@H](CN2CCOCC2)[C@@H](O)c2ccccc2)(C(=O)O)OC1C(O)C(O)CO (stereo partly drawn) [Example 28, (1S,2S)-2-(9-sialylnonanoyl)amino-3-morpholino-1-phenyl-1-propanol]
[1]
  Activity of synapse formation: 95.8

## O=C(CNC(=O)OCc1ccccc1)N[C@@H](CN1CCOCC1)[C@@H](O)c1ccccc1 [Example 1]
[3]
  Activity of accelerating glycolipid biosynthesis (Test Example 2): 85.2

## CCCCNC(=O)CCCCCCCCC(=O)N[C@@H](CN1CCOCC1)[C@@H](O)c1ccccc1 [Example 14, (1S,2S)-2-(9-butylcarbamoyl)nonanoylamino-3-morpholino-1-phenyl-1-propanol]
[1]
  Activity of synapse formation: 94.2

## N[C@@H](CCCCNC(=O)CCCCCCCCC(=O)N[C@@H](CN1CCOCC1)[C@@H](O)c1ccccc1)C(=O)O [Example 27, (1S,2S,16S)-2-(16-amino-11-aza-10-oxo-16-carboxyhexadecanoyl)amino-3-morpholino-1-phenyl-1-propanol]
[1]
  Activity of synapse formation: 100.0

## O=C(CNC(=O)OCc1ccccc1)NCC(=O)N[C@@H](CN1CCOCC1)[C@@H](O)c1ccccc1 [Example 2]
[3]
  Activity of accelerating glycolipid biosynthesis (Test Example 2): 130.9

## (1S,2S)-2-(5-cyclohexylcarbamoyl)pentanoylamino-3-morpholino-1-phenyl-1-propanol [Example 12]
[1]
  Activity of synapse formation: 80.0

## (1S,2S)-2-(5-hexylcarbamoyl)pentanoylamino-3-morpholino-1-phenyl-1-propanol [Example 13]
[1]
  Activity of synapse formation: 95.0

## CCNC(=O)CCCCC(=O)N[C@@H](CN1CCOCC1)[C@@H](O)c1ccccc1 [Example 11, (1S,2S)-2-(5-ethylcarbamoyl)pentanoylamino-3-morpholino-1-phenyl-1-propanol]
[1]
  Activity of synapse formation: 93.3

## N[C@@H](CCCCNC(=O)CCCCC(=O)N[C@@H](CN1CCOCC1)[C@@H](O)c1ccccc1)C(=O)O [Example 26, (1S,2S,12S)-2-(12-amino-7-aza-6-oxo-12-carboxydodecanoyl)amino-3-morpholino-1-phenyl-1-propanol]
[1]
  Activity of synapse formation: 95.0

## CCCCCCNC(=O)CCCCCCCCC(=O)N[C@@H](CN1CCOCC1)[C@@H](O)c1ccccc1 [Example 15, (1S,2S)-2-(9-hexylcarbamoyl)nonanoylamino-3-morpholino-1-phenyl-1-propanol]
[1]
  Activity of synapse formation: 90.0

## CCCCCCOCCOCC(=O)N[C@@H](CN1CCOCC1)[C@@H](O)c1ccccc1 [Example 21, (1S,2S)-2-(3,6-dioxadodecanoyl)amino-3-morpholino-1-phenyl-1-propanol]
[1]
  Activity of synapse formation: 97.5

## CCCCOC(=O)NCC(=O)N[C@@H](CN1CCOCC1)[C@@H](O)c1ccccc1 [Example 3]
[3]
  Activity of accelerating glycolipid biosynthesis (Test Example 2): 98.6

## CCCCCCNC(=O)C1CCC(C(=O)N[C@@H](CN2CCOCC2)[C@@H](O)c2ccccc2)CC1 (stereo partly drawn) [Example 17, (1S,2S)-2-(cyclohexane-4-hexylcarbamoyl-1-carbonyl)amino-3-morpholino-1-phenyl-1-propanol]
[1]
  Activity of synapse formation: 90.0

## CC(=O)CCCCCC(=O)N[C@@H](CN1CCOCC1)[C@@H](O)c1ccccc1 [Example 22, (1S,2S)-2-(7-oxooctanoyl)amino-3-morpholino-1-phenyl-1-propanol]
[1]
  Activity of synapse formation: 88.3

## CCOC(=O)CCCCC(=O)N[C@@H](CN1CCOCC1)[C@@H](O)c1ccccc1 [Example 6, (1S,2S)-2-ethoxyhexanedioylamino-3-morpholino-1-phenyl-1-propanol]
[1]
  Activity of synapse formation: 87.5
